What all share (format): in vivo
The test system of assay [1] is Arabidopsis Group 1 line R127. In words: Root growth dose response of Group 1 line R127. The protocol:
(§1) The dose responses of root growth of the mutant lines treated with a variety of auxins were measured to define the level and chemical spectrum of resistance in detail.
Four additional herbicidal compounds were also tested on the Group 1 line, R127.

For assay [2], the system named is Arabidopsis Group 1 (afb5) and Group 2 (sgt1b) mutant lines. Kind of assay: Root growth dose response of picolinate auxin resistant mutants, complementation Groups 1 and 2. The procedure: FIGS. 1A-1D. […] Root lengths of Arabidopsis seedlings were measured 8 days after seeding on plates containing a range of concentrations of the test compounds and are plotted as a percentage of the root length of untreated plants in the same experiment. […] The symbols used for wild type, R009 from complementation Group 1 and R051 from complementation Group 2 are denoted in FIG. 1A.
To identify mutants resistant to picolinate auxins, EMS-mutagenized M2 seedlings were screened for resistance to DAS534, a 6-phenylpicolinate auxin (Compound 173 in WO 03/011853A1). The seedlings were grown on agarose medium containing 10 nM DAS534. […] Selection of lines for further study was based on the strength of resistance, elimination of potential siblings and the health and fertility of adult plants.
as §1

Assay [3] relates to Arabidopsis mutant axr1-3. In words: Root growth response of mutant axr1-3. The procedure:
(§2) FIGS. 5A-5C. Comparison of the effect of DAS534 and 2,4-D on previously characterized mutants. Measurements were performed as described in FIG. 2. Typical root lengths for untreated controls were 20, 39 and 31 mm for tir1-1, axr2-1 and axr1-3 plants respectively. (FIG. 5A) Effect of DAS534 on edm1 and R051. The deletion mutant line edm1 lacks seven genes (At4g11220 through At4g11280) including SGT1b (Tor et al., Plant Cell 14: 993-1003, 2002). Effect of DAS534 (FIG. 5B) and 2,4-D (FIG. 5C) on axr1-3, axr2-1 and tir1-1 compared with R009 and R051.
The mutant axr1-3 is defective in the rubinylation mechanism required to activate SCF complexes. […] The axr1-3 mutant was also very resistant to picloram (160-fold). […] This is consistent with its general role in the activation of SCF complexes (Schwechheimer et al., Plant Cell. 14(10):2553-2563, 2002).

In assay [4] the test system is Arabidopsis mutant tir1-1. Kind of assay: Root growth response of mutant tir1-1. The procedure: as §2
In assay [5] the test system is wild type Col-0 Arabidopsis plants. Kind of assay: Foliar spray application in the greenhouse, wild type. The following applies: 12 days after treatment. The protocol:
(§3) FIGS. 8A-8C show a comparison of the effect of a foliar application of 200 g/ha picloram (FIG. 8A), 200 g/ha aminopyralid (FIG. 8B) or 50 g/ha 2,4-D (FIG. 8C) on wild type Col-0 and mutant R009 Arabidopsis plants. Pictures were taken 12 days after treatment of 17-day old plants.
(§4) Arabidopsis seedlings were grown for two weeks in a growth chamber (23° C.; continuous light at 120-150 μE m^−2 sec^−1), then taken to the greenhouse for three days after which plants were sprayed with herbicide using a track-sprayer to deliver the appropriate rate. Plants were then grown in the greenhouse for 12 days (22° C. under supplemented light with a 14 h: 10 h light-dark cycle) prior to photography and evaluation. […] Thus the chemical selectivity of resistance seen in seedling plate assays is maintained in adult plants with foliar exposure to the auxin herbicides.

For assay [6], the system named is Group 1 mutant R009 Arabidopsis plants. Kind of assay: Foliar spray application in the greenhouse, AFB5 mutant. As to conditions: 12 days after treatment. The protocol:
as §3, §4

The test system of assay [7] is Arabidopsis mutant line R090. Kind of assay: Seedling resistance screen, line R090. As to conditions: line R090, allelic to axr1-3. The protocol:
(§5) To identify mutants resistant to picolinate auxins, EMS-mutagenized M2 seedlings were screened for resistance to DAS534, a 6-phenylpicolinate auxin (Compound 173 in WO 03/011853A1). The seedlings were grown on agarose medium containing 10 nM DAS534. This concentration was sufficient to produce marked auxinic effects on the seedlings including significant inhibition (60%) of root growth. From a total of 780,100 EMS M2 seedlings, 125 putative resistant mutants were identified by visual inspection. Seeds were recovered from 33 of these plants. Selection of lines for further study was based on the strength of resistance, elimination of potential siblings and the health and fertility of adult plants.
The mutants were crossed with wild-type Col-0 plants and the progeny were analyzed for resistance to DAS534. […] To determine the number of genetic loci identified in this screen, complementation tests were performed by crossing the herbicide-resistant mutants with each other and the known auxin-resistant mutant axr1-3 in a pair-wise fashion. […] Complementation Group 1 contained the mutants R009, R024, R045 and R127, and complementation Group 2 contained the mutants R051, R107 and R118. All seven selectively-resistant mutant lines were phenotypically normal when grown on agarose medium or in soil and they had normal fertility. […]

In assay [8] the test system is Arabidopsis seedlings (wild type / EMS M2). In words: Seedling plate assay on agarose medium, root growth and morphology. The protocol: FIGS. 1A-1D. Differential effects of auxins on root growth of mutants from complementation Groups 1 and 2. Root lengths of Arabidopsis seedlings were measured 8 days after seeding on plates containing a range of concentrations of the test compounds and are plotted as a percentage of the root length of untreated plants in the same experiment. Typical root lengths for untreated controls were 21, 21 and 24 mm for wild-type, Group 1, and Group 2 plants respectively. The symbols used for wild type, R009 from complementation Group 1 and R051 from complementation Group 2 are denoted in FIG. 1A.
as §5

The subject of assay [9] is Arabidopsis deletion mutant line edm1. In words: Root growth response of deletion mutant edm1. As to conditions: edm1, data not shown. The protocol:
as §2
The R051 mutation was mapped to a 100 kb interval on chromosome 4 around 36 cM between markers C4—36 and C4—37 (FIG. 3). This interval contains 17 genes including At4g11260 which encodes the tetratricopeptide-repeat containing protein, SGT1b (SEQ ID NO: 4). […] The deletion mutant line edm1 lacks seven genes (At4g11220 through At4g11280) including SGT1b (Tor et al., Plant Cell 14: 993-1003, 2002). […] It was also very cross-resistant to picloram (20-fold, data not shown) similar to the Group 2 mutants. To determine if the DAS534-resistant mutants in complementation Group 2 contained mutations in SGT1b, At4g11260 was PCR amplified from genomic DNA from all three of the mutants. […]

Take `O=C(O)Cc1cccc2ccccc12` [1-naphthylacetic acid]: in assay [1], the “resistance or difference in response, in words” value (“resistance or difference” for short) was “no resistance”.
Consider `O=C(O)COc1ccc(Cl)cc1Cl` [2,4-D], for which the “cross resistance of DAS534-resistant lines” value in assay [2] (0.045 μM 2,4-D, seven lines R009, R024, R045, R127, R051, R107, R118) is “negligible resistance”. Besides, the “resistance of the mutant lines, in words” value in assay [2] (root growth dose response, both complementation groups) is on record as “negligible resistance”. In addition, the “level of resistance, in words” value in [3] was “high level of resistance”; in [4], “significantly lower levels of resistance to 2,4-D than axr1”. In addition, the “effect of foliar spray application” value was “auxinic symptoms and growth reduction” in assay [5] (50 g/ha, wild type); “auxinic symptoms and growth reduction” in [6] (50 g/ha). For the same molecule, in [7], the “resistance of line R090” value is “robust resistance”.
In [1], `O=C(O)c1nc(Cl)ccc1Cl` [clopyralid] displayed a fold resistance of 50 fold.
Take `O=C(O)c1ccccc1C(=O)Nc1cccc2ccccc12` [napthylphthalamic acid]: the “resistance or difference” value in assay [1] was “no difference in response”.
`Nc1c(F)c(-c2ccc(Cl)cc2)nc(C(=O)O)c1Cl` [DAS534, 4-amino-3-chloro-5-fluoro-6-(4-chlorophenyl)pyridine-2-carboxylic acid]: in assay [8] (Arabidopsis thaliana, 10 nM DAS534 in agarose medium), the inhibition at 0.01 µM was 60%. Besides, in assay [8] (wild-type plants, 5 nM DAS534), the “visible auxinic effects on seedlings” value was “slight agravitopism, have elongated hypocotyls and are unable to fully expand their cotyledons”. For the same molecule, the “hypocotyl elongation and cotyledon expansion” value in assay [2] (Group 1 mutant R127 and Group 2 mutant R051, 5 nM DAS534) is given as “unaffected”. For the same molecule, the “level of resistance, in words” value in assay [3] is on record as “high level of resistance”; in assay [4], “modest level of resistance”. The “resistance of line R090” value in assay [7] is reported as “robust resistance”.
Take `Nc1cc(Cl)nc(C(=O)O)c1Cl` [aminopyralid]: the “effect of foliar spray application” value in [5] (200 g/ha, wild type Col-0) was “profound morphological effects and severely inhibited plant growth”; in assay [6] (200 g/ha), “minimal effect”.
In [9], `Nc1c(Cl)c(Cl)nc(C(=O)O)c1Cl` [picloram] gave a cross-resistance of 20 fold. Besides, the fold resistance in [3] was 160 fold. The “level of resistance, in words” value in [4] is “slightly more resistant”. Moreover, the “effect of foliar spray application” value in [5] (200 g/ha, wild type Col-0) is “profound morphological effects and severely inhibited plant growth”; in assay [6] (200 g/ha), “minimal effect”.
For the molecule `COc1c(Cl)ccc(Cl)c1C(=O)O` [dicamba], the “resistance or difference” value in assay [1] was “no resistance”.

The record behind these values is patent publication US8603755B2, “Resistance to auxinic herbicides” (Dow AgroSciences, LLC., priority 2006, dated 2013).
